Results on seven compounds are retold here after patent US8778871B2 (Takeda Pharmaceutical Company Limited, priority 2004, dated 2014).

Starred links: 1 amine or outer side, 2 acyl side, 3 side chain; linkers in the order of their positions; H or OH if unused. Non-standard residues stand in square brackets, D forms with d. Residues, ends and D or L forms follow the SMILES beside them. X11 = NC(=O)C[C@@H](CN([C@@H](Cc1c[nH]c2ccccc12)C(=O)[*:2])[*:1])N[*:3]; X1 = NC(=O)C[C@@H](C(=O)[*:2])N(C[C@@H](N)Cc1ccc(O)cc1)[*:1]; X8 = O=C([C@H](Cc1ccc2ccccc2n1)N[*:1])[*:2]; Arg(Me) = CNC(=N)NCCC[C@H](N)C(=O)O; d3Pal = N[C@H](Cc1cccnc1)C(=O)O; Cha = N[C@@H](CC1CCCCC1)C(=O)O; azaGly = NNC(=O)O

The target of the experiment is T1, hOT7T175 (Homo sapiens, UniProt Q969F8).
T1 construct: expressed in transfected cells
T1 sequence (Q969F8 whole entry L364H): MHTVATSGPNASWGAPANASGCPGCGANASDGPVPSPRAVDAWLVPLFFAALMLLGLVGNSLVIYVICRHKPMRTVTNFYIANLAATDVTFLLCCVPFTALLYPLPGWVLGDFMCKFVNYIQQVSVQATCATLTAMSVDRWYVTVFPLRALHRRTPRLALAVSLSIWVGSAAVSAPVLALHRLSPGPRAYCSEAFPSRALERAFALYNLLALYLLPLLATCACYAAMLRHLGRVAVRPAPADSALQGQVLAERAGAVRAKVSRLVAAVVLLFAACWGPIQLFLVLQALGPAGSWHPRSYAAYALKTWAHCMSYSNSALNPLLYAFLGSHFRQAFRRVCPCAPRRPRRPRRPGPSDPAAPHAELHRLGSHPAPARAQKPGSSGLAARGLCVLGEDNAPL
The experiment can be described thus: Intracellular Ca ion level-increasing activity using FLIPR (180 seconds; specific activity to Metastin (1-54)). The experiment is classed as cell-based. The following applies: hOT7T175/CHO, change in intracellular calcium ion level for 180 seconds, Tables 21-23. On the procedure:
In accordance with the method described in JPA 2000-312590, the intracellular Ca ion level-increasing activity was measured using FLIPR. […]
The intracellular Ca ion level-increasing activity of the synthetic peptide in hOT7T175/CHO was determined using FLIPR (Molecular Devices, Inc.).
hOT7T175/CHO was subcultured in DMEM supplemented with 10% dialyzed fetal bovine serum (hereinafter abbreviated as dFBS) and provided for the experiment (hereinafter abbreviated as 10% dFBS/DMEM). The hOT7T175/CHO was suspended in 10% dFBS-DMEM in 15×10^4 cells/ml. The suspension was inoculated on a 96-well plate for FLIPR (Black Plate Clear Bottom, Coster, Inc.) at 200 μl each (3.0×10^4 cells/200 μl), followed by incubation at 37° C. overnight in a 5% CO2 incubator. The cells thus incubated were used (hereinafter simply referred to as the cell plate). Then, 21 ml of HANKS/HBSS (9.8 g of HANKS', 0.35 g of sodium hydrogencarbonate, 20 ml of 1M HEPES; after adjusting the pH to 7.4 with 1N sodium hydroxide, the mixture was subjected to sterilization through a filter), 210 μl of […] Probenecid and 210 μl of fetal bovine serum (FBS) were mixed (HANKS/HBSS-Probenecid-FBS).
Furthermore, 2 vials of Fluo3-AM (50 μg/vial) were dissolved in 21 μL of dimethylsulfoxide and 21 μL of 20% Pluronic acid. The resulting solution was added to and mixed with 10 ml of HANKS/HBSS-Probenecid-FBS described above. After the culture medium was removed, the mixture was dispensed onto the cell plate in 100 μl each/well, followed by incubation at 37° C. for an hour in a 5% CO2 incubator (pigment loading). The peptide was dissolved in dimethylsulfoxide in 1×10^−3 M. The peptide solution was diluted with HANKS'/HBSS containing 2.5 mM Probenecid and 0.2% BSA. The dilution was transferred to a 96-well plate for FLIPR (V-Bottom plate, Coster, Inc.) (hereinafter referred to as a sample plate). After completion of the pigment loading onto the cell plate, the cell plate washed 4 times with wash buffer, which was obtained by adding 2.5 mM Probenecid to HANKS'/HBSS, using a plate washer to leave 100 μL of wash buffer after the washing. The cell plate and the sample plate were set in FLIPR and 0.05 ml of a sample from the sample plate was automatically transferred to the cell plate with the FLIPR device to promote the cell response. A change in intracellular calcium ion level for 180 seconds was measured with passage of time.
With `CNC(=N)NCCC[C@H](NC(=O)[C@H](CC(C)C)NC(=O)NNC(=O)[C@H](Cc1ccccc1)NC(=O)[C@H](CO)NC(=O)[C@H](CC(N)=O)NC(=O)[C@H](Cc1c[nH]c2ccccc12)NC(=O)[C@H](N)Cc1cccnc1)C(=O)N[C@@H](Cc1ccccc1)C(N)=O` [Compound No. 289, D-Pya(3)-Trp-Asn-Ser-Phe-AzaGly-Leu-Arg(Me)-Phe-NH2] (H-[d3Pal]WNSF[azaGly]L[Arg(Me)]F-NH2), the “intracellular Ca ion level-increasing activity [specific activity to Metastin (1-54)]” value is recorded as 1.
In the case of `CNC(=N)NCCC[C@H](NC(=O)[C@H](CC(C)C)NC(=O)NNC(=O)[C@H](Cc1ccccc1)NC(=O)[C@H](CO)NC(=O)[C@H](CC(N)=O)NC(=O)[C@H](CC1CCCCC1)NC(=O)[C@@H](CC(N)=O)NC(=O)[C@H](N)Cc1cccnc1)C(=O)N[C@@H](Cc1ccccc1)C(N)=O` [Compound No. 290, D-Pya(3)-D-Asn-Cha-Asn-Ser-Phe-AzaGly-Leu-Arg(Me)-Phe-NH2] (H-[d3Pal][dN][Cha]NSF[azaGly]L[Arg(Me)]F-NH2) it was 1; in that of `CNC(=N)NCCC[C@H](NC(=O)[C@H](CC(C)C)NC(=O)NNC(=O)[C@H](Cc1ccccc1)NC(=O)[C@H](CO)NC(=O)[C@H](CC(N)=O)NC(=O)[C@H](CC1CCCCC1)NC(=O)[C@@H](Cc1ccc(O)cc1)NC(=O)[C@H](N)Cc1cccnc1)C(=O)N[C@@H](Cc1ccccc1)C(N)=O` [Compound No. 291, D-Pya(3)-D-Tyr-Cha-Asn-Ser-Phe-AzaGly-Leu-Arg(Me)-Phe-NH2] (H-[d3Pal][dY][Cha]NSF[azaGly]L[Arg(Me)]F-NH2), 2.
Consider `CC(C)C[C@H](NC(=O)CNC(=O)[C@H](Cc1ccccc1)NC(=O)[C@H](CO)NC(=O)[C@H](CC(N)=O)NC(=O)[C@H](Cc1c[nH]c2ccccc12)NC[C@H](CC(N)=O)NC(=O)[C@@H](N)Cc1ccc(O)cc1)C(=O)N[C@@H](CCCNC(=N)N)C(=O)N[C@@H](Cc1ccccc1)C(N)=O` [Compound No. 295] (H-[X11](Tyr)NSFGLRF-NH2), for which the “intracellular Ca ion level-increasing activity [specific activity to Metastin (1-54)]” value was determined as 1.
For `CNC(=N)NCCC[C@H](NC(=O)[C@H](CC(C)C)NC(=O)NNC(=O)[C@H](Cc1ccccc1)NC(=O)[C@H](CO)NC(=O)[C@H](CC(N)=O)NC(=O)[C@H](Cc1c[nH]c2ccccc12)NC(=O)[C@H](CC(N)=O)NC[C@@H](N)Cc1ccc(O)cc1)C(=O)N[C@@H](Cc1ccccc1)C(N)=O` [Compound No. 299, TyrΨ(CH2NH)Asn-Trp-Asn-Ser-Phe-AzaGly-Leu-Arg(Me)-Phe-NH2] (H-[X1]WNSF[azaGly]L[Arg(Me)]F-NH2), the “intracellular Ca ion level-increasing activity [specific activity to Metastin (1-54)]” value stood at 5.
Regarding `CNC(=N)NCCC[C@H](NC(=O)[C@H](CC(C)C)NC(=O)NNC(=O)[C@H](Cc1ccccc1)NC(=O)[C@H](CO)NC(=O)[C@H](CC(N)=O)NC(=O)[C@@H](Cc1c[nH]c2ccccc12)NC(=O)[C@H](CC(N)=O)NC[C@@H](N)Cc1ccc(O)cc1)C(=O)N[C@@H](Cc1ccccc1)C(N)=O` [Compound No. 300, TyrΨ(CH2NH)Asn-D-Trp-Asn-Ser-Phe-AzaGly-Leu-Arg(Me)-Phe-NH2] (H-[X1][dW]NSF[azaGly]L[Arg(Me)]F-NH2), the “intracellular Ca ion level-increasing activity [specific activity to Metastin (1-54)]” value is 5.
Take `CNC(=N)NCCC[C@H](NC(=O)[C@H](CC(C)C)NC(=O)NNC(=O)[C@H](Cc1ccccc1)NC(=O)[C@H](CO)NC(=O)[C@H](CC(N)=O)NC(=O)[C@H](Cc1ccc2ccccc2n1)NC(=O)[C@H](CC(N)=O)NC(=O)[C@H](N)Cc1ccc(O)cc1)C(=O)N[C@@H](Cc1ccccc1)C(N)=O` [Compound No. 301, D-Tyr-Asn-Ala(2-Qui)-Asn-Ser-Phe-AzaGly-Leu-Arg(Me)-Phe-NH2] (H-[dY]N[X8]NSF[azaGly]L[Arg(Me)]F-NH2): the “intracellular Ca ion level-increasing activity [specific activity to Metastin (1-54)]” value amounted to 1.
